Reference: PubChem BioAssay (NCI)
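48-hour exposure; five concentrations; linearly interpolated endpoints. TGI marks complete inhibition of growth.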

Tests used:
Test in all cases: NCI-60 cell line screen, 48 h
[1] = system: SK-MEL-28 melanoma
[2] = system: HOP-92 NSCLC
[3] = system: TK-10 renal
[4] = system: RPMI-8226 leukemia
[5] = system: LOX IMVI melanoma
[6] = system: A498 renal
[7] = system: HCC-2998 colon
[8] = system: PC-3 prostate
[9] = system: MALME-3M melanoma
[10] = system: SN12C renal
[11] = system: CAKI-1 renal

SMILES	TGI [1] [µM]	TGI [2] [µM]	TGI [3] [µM]	TGI [4] [µM]	TGI [5] [µM]	TGI [6] [µM]	TGI [7] [µM]	TGI [8] [µM]	TGI [9] [µM]	TGI [10] [µM]	TGI [11] [µM]
CC1=CC2(C)C=C[C@@H]1C(=O)[C@@]1(C)CC[C@@](O)(C(C)C)[C@H]1CC2	41.7	28.2	> 100	62	39	45.6	34.6	51.9	36.2	39.4	
CCOC(=O)/C=C(/C(=O)OCC)n1ccc(=O)n(Cc2cn(CCCCOC(C)=O)nn2)c1=O	> 100	20.6	> 100	> 100	> 100		> 100	> 100		> 100	53.6
CCCCC/C=C\C=C\CCCCCCCCC(=O)OC	> 100	> 100	> 100	> 100	87.9	> 100		> 100	> 100	> 100	> 100
Cc1ccc(NC(=O)c2cccc(OP(=O)(Nc3ccc(C)cc3)Nc3ccc(C)cc3)c2)cc1	> 100	8.93	83.4		> 100	62.3	> 100	> 100	39.6	> 100	> 100
CCOC(=O)/C(C1=NCCN1C)=C(\O)c1ccccc1	> 100			> 100	> 100		> 100		> 100	> 100	> 100
C1=NN2C(c3ccccc3)=NOC2C2C(c3ccccc3)=NOC12 (stereo not drawn)			> 100		> 100		> 100	> 100	> 100		> 100
O=[N+]([O-])C(C(Cl)=C(Cl)Cl)=C(N1CCCCC1)N1CCCCC1	> 100		> 100	> 100	> 100	> 100	> 100	> 100	> 100	> 100	> 100
COc1cc2c(cc1NC(=O)c1ccccc1)c1c(n2S(=O)(=O)c2ccccc2)CCN(S(=O)(=O)c2ccccc2)C1	> 100	> 100		> 100	> 100	> 100	> 100	> 100			
O=C1CC(n2ccnc2)c2c(Cl)sc(Cl)c21 (stereo not drawn)	> 54.7		45.1	> 100	19.2			36.7	36.1	37.3	36.1
Cc1cc(NS(=O)(=O)c2ccc(NO)cc2)no1	> 100	> 100	> 100		39.6	> 100	> 100	> 100	> 100	43	> 100
COC(=O)c1cc(/C=C/C(=O)Cc2ccccc2)cn1S(=O)(=O)c1ccccc1			> 100		> 100		> 100	> 100	> 100	> 100	> 100
O=c1ccn(C/C=C/c2ccccc2)c(=S)n1C/C=C/c1ccccc1	> 100	> 100	> 100		> 100	> 100	> 100	> 100	> 100	> 100	> 100
COc1ccc(S(=O)(=O)N/N=C(\C)CN2C(=O)c3ccccc3C2=O)cc1OC	> 100	> 100	> 100	> 100		> 100	> 100		> 100	> 100	> 100
O=C(Nc1ccccc1)OCCN=c1c2ccccc2ccc2ccccc12	60.9	53.2	> 100	42.2	44.5		25.1	49.4	46	> 100	90.6
Cc1c(-c2coc(-c3ccc([N+](=O)[O-])cc3)n2)c(=O)n(-c2ccccc2)n1C	> 100	> 100	> 100	> 100	> 100	> 100	> 100		> 100	> 100	
COc1ccc(/C=C2/SC(=Nc3ccccc3)N(NC(=O)Cc3ccccc3)C2=O)cc1	> 100	> 100	> 100	> 100		> 100	> 100			> 100	
COc1nc(=O)[nH]c2c1C(c1ccc([N+](=O)[O-])cc1)c1c(OC)nc(=O)[nH]c1O2	> 100		> 100	> 100		> 100		> 100		> 100	> 100
Cc1n[nH]c(=O)n1/N=C/c1ccco1	> 100			> 100		> 100	> 100	> 100	> 100	> 100	> 100
Cc1nc(C)c(N2CCN(Cc3ccccc3)CC2)c(=O)[nH]1	> 100	> 100	> 100	> 100	> 100	> 100	> 100	> 100	> 100	> 100	
N#Cc1c(-c2ccccc2)cn(C(=O)c2ccccc2)c1N	> 100	> 100	> 100	> 100	> 100		0.0659	> 100	> 100	> 100	
N#CCCC1(CCC#N)S(=O)(=O)OCCOS1(=O)=O	> 100		> 100	> 100	> 100			> 100	> 100	> 100	> 100
CN1C(=O)C(=Cc2ccc(Br)cc2)C(=O)N(C)C1=O	> 100	> 100	> 100	> 100	> 100	> 100	> 100	> 100			> 100
O=C1CCC(=O)c2ccccc2N1	> 100	> 100	> 100	> 100	> 100	> 100	> 100		> 100	> 100	> 100
Cc1cn(CC(=S)NCCc2c[nH]c3ccccc23)c(=O)[nH]c1=O	> 100	> 100		> 100	> 100	> 100		> 100	> 100	> 100	
